# Experimental data taken from patent US7683055B2, “Lanthionine-related compounds for the treatment of inflammatory diseases” (Oklahoma Medical Research Foundation, priority 2006, dated 2010).
# Columns and labels:
# RAW 264.7 macrophages = assay: LPS-stimulated nitrite production in RAW 264.7 macrophages; assay type: cell-based; conditions: 24-48 h
# Experimental: (§1) Primary astrocytes were cultured from neonatal R6/2 transgenic mouse pups (“Htt+”) which are the standard murine model for Huntington's disease (animals commercially obtained from Jackson Labs) or nontransgenic littermates. For RAW cell studies, RAW264.7 macrophages were obtained commercially from American Type Culture Collection. RAW 264.7 macrophages were grown in DMEM plus 10% FBS and 1% Pen/Strep. Cells were maintained in culture according to published methods. Cells were treated with +/−[…] bacterial lipopolysaccharide serotype 0127:B8 (Sigma Chemical)+/−various concentrations of (R)-LKE1 for 24-48 h. (R)-LKE1 was added 30 minutes prior to LPS challenge. Nitrite was measured in the cell culture medium using the Griess diazotization assay. Cells were lysed and Western blots performed for protein expression or in other experiments for ribonuclease protection assays.
# NSC-34 cells [1] = assay: NSC-34 viability after H2O2 challenge (tetrazolium reduction); assay type: cell-based, mouse; conditions: H2O2 challenge 24 h
# Experimental: NSC-34 cells were challenged directly with H2O2 for 24 h and the viability was assessed by tetrazolium reduction assay.
# Furthermore, the invention contemplates that cytoprotection might be achieved by providing metabolic precursors to LK, rather than direct addition of the compound. For example, the inventor has studied the effects of NSC-34 cells treated with ethyl pyruvate in the presence or absence of lanthionine for 6 h prior to challenge with H2O2 and has assayed the viability of these cells 24 h later (FIG. 10). As reported in previous studies, ethyl pyruvate alone was protective against peroxide-induced cell death (Desagher et al., 1997; Nakamichi et al., 2005) with complete protection at ethyl pyruvate concentrations >1 mM (approximately 2-fold higher than ambient cell culture medium pyruvate concentrations; data not shown).
# (R)-LKE1 protects NSC-34 motoneuron x neuroblastoma hybrid cells from hydrogen peroxide toxicity (FIG. 4). Cells were treated with the indicated concentration of (R)-LKE1. Thirty minutes later cells were challenged with the indicated concentration of hydrogen peroxide. Cell viability was assayed 24 hours later by tetrazolium reduction using a commercially available kit (Promega).
# NSC-34 motor neuron-like cells, derived through the fusion of a neuroblastoma cell line with embryonic mouse motor neurons (Cashman et al., 1992), were grown in Dulbeco's modified essential medium (DMEM) plus 5% fetal bovine serum (FBS) and 1% penicillin plus 1% streptomycin (Pen/Strep). Recombinant TNFα and interferon gamma (IFNγ) were purchased from BD Biosciences (Pasadena Calif. USA). Lanthionine was purchased from Sequoia Research Products Ltd. (Pangbourne, UK). All other reagents were of the highest available commercial purity.
# NSC-34 cells were exposed to 1 mM H2O2 with or without ethyl-pyruvate and/or lantionine (LK).
# [2] = tested on: SHSY5Y dopaminergic neuroblastoma cells; assay: rotenone toxicity in SHSY5Y cells; assay type: cell-based; conditions: 30 min pretreatment
# Experimental: FIG. 15. (R)-LKE1 protects SHSY5Y dopaminergic neuroblastoma cells against rotenone toxicity. In this experiment SHSY5Y cultures were treated with (R)-LKE1 for 30 min. prior to addition of rotenone, then assayed for viability at various later time points. The percent change in 24 hour cell viability was measured in the presence and absence of (R)-LKE1 at difference rotenone concentrations. “LKE” refers to (R)-LKE1.
# For example, the methods and compounds of present invention are expected to by useful for treating Parkinson's disease in an individual. […] In this experiment SHSY5Y cultures were treated with (R)-LKE1 for 30 min. prior to addition of rotenone, then assayed for viability at various later time points.
# Htt+ astroglia = assay: LPS-stimulated NO2- production in Htt+ astroglia; assay type: cell-based, mouse; conditions: LPS serotype 0127:B8
# Experimental: as §1
# C6 glioma cells = assay: stimulated nitrite production in C6 glioma cells; assay type: cell-based
# NSC-34 cells [3] = assay: NSC-34 viability in cytokine-conditioned EOC-20 microglial medium (tetrazolium reduction); assay type: cell-based, mouse
# Experimental: In the second cytotoxicity paradigm, the inventor has also shown that the compounds and methods of this invention diminish the toxicity of microglia-conditioned medium toward NSC-34 cells. NSC-34 cells were treated with conditioned medium taken from EOC-20 cells that had been stimulated for 24 h with 50 U/mL IFNγ plus […] TNFα. This cytokine-conditioned EOC-20 medium is toxic to NSC-34 cells, whereas the same cytokine mixture added directly to NSC-34 cells is not toxic (data not shown). Medium from unstimulated EOC-20 cells is likewise nontoxic (data not shown). The toxic factor in the cytokine-stimulated EOC-20 cell conditioned medium was not identified. […] The concentration of (R)-LKE1 necessary to achieve half-maximal protective efficacy in this case was less than 1 μM (FIG. 3).
# (R)-LKE1 protects NSC-34 motoneuron hybridoma cells from microglial-derived neurotoxic products (FIG. 3). EOC-20 microglia were stimulated with 50 U/mL IFNγ plus 20ng/mL TNFα for 24 hours, and cytokine-conditioned medium (CM) was collected. NSC-34 cells (2 days post-passage) were treated with the indicated concentration of (R)-LKE1 for 2.5 hours after which 50% of the medium was replaced with CM. […] After 48 hours, viability of NSC-34 cultures was assessed by tetrazolium reduction assay using a commercially available kit (Promega Aqueous OneStep®).
structure (smiles),measurement,setting,value
CCOC(=O)[C@@H]1CSCC(C(=O)O)=N1 [(R)-LKE1],inhibition of LPS-stimulated nitric oxide production,RAW 264.7 macrophages,inhibited LPS stimulated nitric oxide production
same,protection from H2O2-induced cell death,NSC-34 cells [1],protected NSC-34 cells from direct oxidative stress-induced cell death in a dose dependent fashion
same,protection from rotenone toxicity,[2],protecting SHSY5Y cells from rotenone toxicity
same,NO2- produced in response to LPS,Htt+ astroglia,reduce the amount of NO2^− produced
same,suppression of nitrite production,C6 glioma cells; stimulated by TNFα+IFNγ,does not suppress nitrite production
same,suppression of nitrite production,C6 glioma cells; stimulated by TNFα+LPS,not to suppress nitrite production
same,EC50,"NSC-34 cells [3]; Mus musculus, NSC-34, cytokine-conditioned EOC-20 medium, read-out: concentration necessary to achieve half-maximal protective efficacy",< 1 µM
same,mitigation of conditioned-medium toxicity,NSC-34 cells [3]; co-treatment with conditioned medium,"largely, but not completely mitigated"
